In brackets after ≈: the same amount, converted by molar mass. Read-outs that look alike come from different tables or passages of the source.
Legend:
Assay in all cases: microbe, parasite or virus in culture
Assay type in all cases: cell-based
[1] = test system: M. tuberculosis strain 1369
[2] = test system: M. tuberculosis strain 1371
[3] = test system: M. tuberculosis strain 1348
[4] = test system: M. tuberculosis strain 1356
[5] = Mycobacterium tuberculosis, 1369
[6] = Mycobacterium tuberculosis, 1371
[7] = Mycobacterium tuberculosis, 1348
[8] = Mycobacterium tuberculosis, 1356

Row | Molecule | MIC [1, 5] | fold resistance ([1]; strain 1369) | MIC [2, 6] | fold resistance ([2]; strain 1371) | MIC [3, 7] | fold resistance ([3]; strain 1348) | MIC [4, 8] | fold resistance ([4]; strain 1356) | MIC ([1]; strain 1369) | MIC ([2]; strain 1371) | MIC ([3]; strain 1348) | MIC ([4]; strain 1356) | fold resistance [1] | fold resistance [2] | fold resistance [3] | fold resistance [4]
1 | [H]/N=C(/N)N[C@H]1[C@H](O)[C@@H](O)[C@H](O[C@@H]2O[C@@H](C)[C@](O)(C=O)[C@H]2O[C@@H]2O[C@@H](CO)[C@H](O)[C@@H](O)[C@@H]2NC)[C@@H](N/C(N)=N\[H])[C@@H]1O [Streptomycin] | 0.25 µg/mL (≈ 0.43 µM) | 1 fold | > 128 µg/mL | (>512) fold | 0.25 µg/mL (≈ 0.43 µM) | 1 fold | 0.25 µg/mL (≈ 0.43 µM) | 1 fold |  |  |  |  |  |  |  | 
2 | (+)-Calanolide A [(+)-Calanolide A (1)] |  | 1 fold |  | 1 fold |  | 1 fold |  | 1 fold | 8 µg/mL | 8 µg/mL | 8 µg/mL | 8 µg/mL |  |  |  | 
3 | NNC(=O)c1ccncc1 [Isoniazid] | 0.031 µg/mL (≈ 0.226 µM) |  | 0.031 µg/mL (≈ 0.226 µM) |  | > 128 µg/mL |  | 0.25 µg/mL (≈ 1.82 µM) |  |  |  |  |  | 0.031 (1) fold | 0.031 (1) fold | >128 (>4100) fold | 0.25 (8) fold
4 | CC[C@@H](CO)NCCN[C@@H](CC)CO [Ethambutol] | 2 µg/mL (≈ 9.79 µM) | 1 fold | 2 µg/mL (≈ 9.79 µM) | 1 fold | 8 µg/mL (≈ 39.2 µM) | 4 fold | 64 µg/mL (≈ 313 µM) | 32 fold |  |  |  |  |  |  |  | 
5 | CO[C@H]1/C=C/O[C@@]2(C)Oc3c(C)c(O)c4c(O)c(c(/C=N/N5CCN(C)CC5)c(O)c4c3C2=O)NC(=O)/C(C)=C\C=C\[C@H](C)[C@H](O)[C@@H](C)[C@@H](O)[C@@H](C)[C@H](OC(C)=O)[C@@H]1C [Rifampin] | 64 µg/mL (≈ 77.8 µM) |  | 0.016 µg/mL (≈ 0.0194 µM) |  | 0.031 µg/mL (≈ 0.0377 µM) |  | 0.031 µg/mL (≈ 0.0377 µM) |  |  |  |  |  | 64 (4,000) fold | 0.016 (1) fold | 0.031 (2) fold | 0.031 (2) fold

From patent US6670383B2, “Pyranocoumarin compounds as a novel pharmacophore with anti-TB activity” (priority 2001, dated 2003)
